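Results reflect a 48-hour exposure of cells in 96-well plates to compound at five concentrations. The concentration for 50% growth inhibition is given as GI50.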 The source made the active and inactive calls. No stated cut-off is given here; in the data, active = GI50 up to about 1.1 µM and inactive = higher.
Columns and labels:
Assay in all cases: DTP human tumour cell line panel, 48 h
A549 = tested on: A549
DMS-114 = tested on: DMS-114
HOP-92 = tested on: HOP-92
HT-29 = tested on: HT-29
IGROV-1 = tested on: IGROV-1
KM12 = tested on: KM12
NCI-H460 = tested on: NCI-H460
OVCAR-8 = tested on: OVCAR-8
RPMI-8226 = tested on: RPMI-8226
SF-295 = tested on: SF-295
SF-539 = tested on: SF-539
SK-MEL-2 = tested on: SK-MEL-2
SK-OV-3 = tested on: SK-OV-3
SNB-19 = tested on: SNB-19
UACC-257 = tested on: UACC-257
COLO 205 = tested on: COLO 205
HCC 2998 = tested on: HCC 2998
DU-145 = tested on: DU-145
MDA-MB-231 = tested on: MDA-MB-231
SNB-75 = tested on: SNB-75

Compound	GI50 (A549)	GI50 (DMS-114)	GI50 (HOP-92)	GI50 (HT-29)	GI50 (IGROV-1)	GI50 (KM12)	GI50 (NCI-H460)	GI50 (OVCAR-8)	GI50 (RPMI-8226)	GI50 (SF-295)	GI50 (SF-539)	GI50 (SK-MEL-2)	GI50 (SK-OV-3)	GI50 (SNB-19)	GI50 (UACC-257)	GI50 (COLO 205)	GI50 (HCC 2998)	GI50 (DU-145)	GI50 (MDA-MB-231)	GI50 (SNB-75)
CC(C)(Oc1ccc2c(=O)cc(-c3ccccc3)oc2c1)C(=O)Nc1c(Cl)cccc1Cl	67.1 µM (inactive)	19.7 µM (inactive)	20.1 µM (inactive)	> 100 µM (inactive)	> 100 µM (inactive)	79.1 µM (inactive)	> 100 µM (inactive)	29.4 µM (inactive)	47.8 µM (inactive)	> 100 µM (inactive)	> 100 µM (inactive)	> 100 µM (inactive)	> 100 µM (inactive)	> 100 µM (inactive)	> 100 µM (inactive)	–	–	–	–	–
O=C(/C=C/c1ccccc1)/C=C/c1ccccc1O	23.9 µM (inactive)	17.8 µM (inactive)	83.8 µM (inactive)	24.4 µM (inactive)	18.7 µM (inactive)	17.8 µM (inactive)	19.1 µM (inactive)	17 µM (inactive)	16.4 µM (inactive)	24.4 µM (inactive)	22 µM (inactive)	59.3 µM (inactive)	19.1 µM (inactive)	23.3 µM (inactive)	20.8 µM (inactive)	17.3 µM (inactive)	12.5 µM (inactive)	–	–	–
COc1c(OC)c(OC)c2c(=O)cc(-c3ccc(OC(C)C)cc3)oc2c1OC	24.2 µM (inactive)	–	8.17 µM (inactive)	8.32 µM (inactive)	> 42.6 µM (inactive)	30.9 µM (inactive)	27.4 µM (inactive)	14.7 µM (inactive)	3.75 µM (inactive)	29.4 µM (inactive)	19.7 µM (inactive)	20.8 µM (inactive)	> 35.7 µM (inactive)	> 38.9 µM (inactive)	25.6 µM (inactive)	21.4 µM (inactive)	28.4 µM (inactive)	26.1 µM (inactive)	29.3 µM (inactive)	> 35.2 µM (inactive)
N#Cc1c(N2CCCC2)nsc1NCc1ccccc1	> 100 µM (inactive)	–	54.1 µM (inactive)	> 100 µM (inactive)	> 100 µM (inactive)	> 100 µM (inactive)	> 100 µM (inactive)	> 100 µM (inactive)	> 100 µM (inactive)	> 100 µM (inactive)	> 100 µM (inactive)	> 100 µM (inactive)	> 100 µM (inactive)	> 100 µM (inactive)	> 100 µM (inactive)	> 100 µM (inactive)	> 100 µM (inactive)	> 100 µM (inactive)	> 100 µM (inactive)	> 100 µM (inactive)
CO/C=C/c1cc2c(cc1C(OC)OC)OCO2	> 100 µM (inactive)	32.9 µM (inactive)	40.2 µM (inactive)	39.4 µM (inactive)	60.1 µM (inactive)	52.6 µM (inactive)	36 µM (inactive)	> 100 µM (inactive)	–	–	34.7 µM (inactive)	82.2 µM (inactive)	26.1 µM (inactive)	36.7 µM (inactive)	> 100 µM (inactive)	–	> 100 µM (inactive)	–	–	16.4 µM (inactive)
CC1=NN(C(=O)Cc2ccccc2)C(=O)/C1=C\c1ccc(O)cc1	> 100 µM (inactive)	> 100 µM (inactive)	> 100 µM (inactive)	> 100 µM (inactive)	> 100 µM (inactive)	> 100 µM (inactive)	> 100 µM (inactive)	> 100 µM (inactive)	> 100 µM (inactive)	> 100 µM (inactive)	> 100 µM (inactive)	> 100 µM (inactive)	> 100 µM (inactive)	> 100 µM (inactive)	> 100 µM (inactive)	> 100 µM (inactive)	> 100 µM (inactive)	–	–	–
Nc1nc2c(nnn2C2C=C(CO)C(O)C2O)c(=O)[nH]1 (stereo not given)	> 100 µM (inactive)	> 100 µM (inactive)	> 100 µM (inactive)	> 100 µM (inactive)	> 100 µM (inactive)	> 100 µM (inactive)	> 100 µM (inactive)	> 100 µM (inactive)	–	> 100 µM (inactive)	> 100 µM (inactive)	24.2 µM (inactive)	> 100 µM (inactive)	> 100 µM (inactive)	> 100 µM (inactive)	> 100 µM (inactive)	> 100 µM (inactive)	–	–	> 100 µM (inactive)
NNC(=S)N/N=C(\c1nc2ccc(Cl)cc2nc1O)C(O)c1ccc(Cl)cc1Cl (stereo not given)	> 100 µM (inactive)	> 100 µM (inactive)	> 100 µM (inactive)	> 100 µM (inactive)	> 100 µM (inactive)	> 100 µM (inactive)	> 100 µM (inactive)	> 100 µM (inactive)	> 100 µM (inactive)	> 100 µM (inactive)	> 100 µM (inactive)	> 100 µM (inactive)	> 100 µM (inactive)	> 100 µM (inactive)	> 100 µM (inactive)	> 100 µM (inactive)	–	–	–	> 100 µM (inactive)
CCOP(=O)(O)C(Nc1ccc(/N=N/c2ccccc2)cc1)c1cccc(C(Nc2ccc(/N=N/c3ccccc3)cc2)P(=O)(O)OCC)c1 (stereo not given)	34.2 µM (inactive)	–	41.4 µM (inactive)	20.1 µM (inactive)	56.5 µM (inactive)	32.6 µM (inactive)	33.3 µM (inactive)	55 µM (inactive)	23.2 µM (inactive)	24 µM (inactive)	33.9 µM (inactive)	45.2 µM (inactive)	81.3 µM (inactive)	59.8 µM (inactive)	57 µM (inactive)	21.6 µM (inactive)	25.2 µM (inactive)	80.9 µM (inactive)	58.6 µM (inactive)	44.4 µM (inactive)
COc1ccc(C2SC(=N)Nc3c2c(C)nn3C(=O)c2ccc(Cl)cc2)cc1OC (stereo not given)	> 10 µM (inactive)	–	> 10 µM (inactive)	> 10 µM (inactive)	> 10 µM (inactive)	> 10 µM (inactive)	> 10 µM (inactive)	> 10 µM (inactive)	> 10 µM (inactive)	> 10 µM (inactive)	> 10 µM (inactive)	> 10 µM (inactive)	> 10 µM (inactive)	> 10 µM (inactive)	> 10 µM (inactive)	> 10 µM (inactive)	> 10 µM (inactive)	> 10 µM (inactive)	> 10 µM (inactive)	> 10 µM (inactive)
[O-]c1c2cc(-[n+]3c(-c4ccccc4)cc(-c4ccccc4)cc3-c3ccccc3)cc1CO[C@@H](c1ccccc1)[C@H](c1ccccc1)OCCOCCO[C@@H](c1ccccc1)[C@H](c1ccccc1)OC2	0.0451 µM (active)	–	0.0857 µM (active)	0.0386 µM (active)	0.0455 µM (active)	0.0444 µM (active)	0.0363 µM (active)	0.0351 µM (active)	0.0176 µM (active)	0.0719 µM (active)	0.408 µM (active)	0.0394 µM (active)	0.0502 µM (active)	0.0489 µM (active)	0.106 µM (active)	0.0195 µM (active)	0.181 µM (active)	0.284 µM (active)	0.104 µM (active)	0.0486 µM (active)
O=C(c1cc2c(c3ccccc13)NC1(CCCCC1)N=C2C(F)(F)F)C(F)(F)F	4.35 µM (inactive)	–	3.69 µM (inactive)	3.66 µM (inactive)	4.93 µM (inactive)	3.42 µM (inactive)	3.27 µM (inactive)	4.23 µM (inactive)	3.47 µM (inactive)	3.2 µM (inactive)	2.53 µM (inactive)	2.44 µM (inactive)	5.61 µM (inactive)	5.4 µM (inactive)	3.17 µM (inactive)	5.57 µM (inactive)	2.29 µM (inactive)	5.35 µM (inactive)	3.14 µM (inactive)	4.7 µM (inactive)
O=C(/C=C/c1cc(O)c(O)cc1O)OCCc1ccccc1	> 67.8 µM (inactive)	–	7.6 µM (inactive)	18.4 µM (inactive)	23.1 µM (inactive)	62.4 µM (inactive)	34.5 µM (inactive)	9.57 µM (inactive)	3.56 µM (inactive)	29.4 µM (inactive)	18.6 µM (inactive)	20.8 µM (inactive)	26.8 µM (inactive)	61.7 µM (inactive)	34.8 µM (inactive)	11.2 µM (inactive)	> 72.1 µM (inactive)	> 52.6 µM (inactive)	23.5 µM (inactive)	56 µM (inactive)
O=[N+]([O-])c1cc2no[n+]([O-])c2cc1N1CCCCC1	11.3 µM (inactive)	–	2.4 µM (inactive)	1.76 µM (inactive)	3.21 µM (inactive)	13.4 µM (inactive)	15.6 µM (inactive)	1.95 µM (inactive)	1.28 µM (inactive)	17.4 µM (inactive)	2.39 µM (inactive)	7.05 µM (inactive)	14 µM (inactive)	16.3 µM (inactive)	8.24 µM (inactive)	5.37 µM (inactive)	13.2 µM (inactive)	2.45 µM (inactive)	8.47 µM (inactive)	2.39 µM (inactive)
CN1CC(=O)N(C)c2ncn(Cc3ccccc3)c2C1=O	> 100 µM (inactive)	> 100 µM (inactive)	–	> 100 µM (inactive)	> 100 µM (inactive)	> 100 µM (inactive)	> 100 µM (inactive)	> 100 µM (inactive)	> 100 µM (inactive)	> 100 µM (inactive)	> 100 µM (inactive)	–	> 100 µM (inactive)	> 100 µM (inactive)	–	> 100 µM (inactive)	> 100 µM (inactive)	–	–	> 100 µM (inactive)

From ChEMBL document CHEMBL1201862, “PubChem BioAssay data set” (2004)
